System: IgM XNAs
Assay: effect of TPC on xenoreactive antibody level in baboons
Assay type: in vivo, baboon
Excerpt: The TPC molecule 410S was synthesized as described in Example 5 above. Baboons were first immunoapheresed using α-gal-columns in order to remove circulating αGal antibodies, and to set a basis for comparison of the ability of TPC to remove αGal antibodies from the circulation.
The procedures for treating and transplanting the baboons are described in Shu S. Lin et al., Transplant Immunol. 5:212-218, 1997. Descriptions of methods for making αGal-columns are contained in U.S. Pat. Nos. 5,695,759 and 5,651,968, which are herein incorporated by reference. Briefly, each baboon subject was prepared for plasma treatment by induction of anesthesia with ketamine HCl and pentamine, and anesthesia was then maintained during all procedures under inhalation and Forane™ gas. The subject's bloodstream was asceptically connected by intravenous puncture to a plasmapheresis machine which separated the plasma from the cells and platelets. The plasma was asceptically conducted to an α-gal column; effluent from the column was pumped and remixed on-line with the cells and platelets, and reinfused to the subject. This procedure was carried out continuously for 2-3 plasma volumes. The blood flow rate of 75-100 cc/min (with a plasma flow rate of 35-50 cc/min), was well tolerated by the subject. The entire column procedure lasted 1-1.5 hours.
250 mg of TPC (410S, as described in Example 5 above) was administered as noted in FIGS. 12 and 13.

(αGal(1,3)Gal β 1-4 GlcNAc)4-PEG [Example 410S]
IgM XNA, % pretreatment levels (Baboon 376-96, after next administration of 250 mg TPC): about 5%
circulating IgM XNA levels (Baboon 376-96, after second immunoapheresis plus 250 mg TPC): undetectable
circulating levels of IgM XNA (Baboon 376-96, six subsequent administrations of 250 mg TPC every 3 or 4 days): lower each time
IgM XNA, % pretreatment levels (Baboon 376-96, three days after first TPC (rebound)): 35%
levels of IgM XNAs (Baboon 377-96, infusion of 250 mg TPC after third immunoapheresis): undetectable
IgM XNA levels, % pretreatment levels (Baboon 377-96, three days after the 250 mg TPC infusion (rebound)): about 15%

Source: US20040141944A1, “Inhibition of xenoreactive antibodies” (priority 1998, published 2004)
